Where two headings read alike, the source gives them in different places.
Tests used:
[1] = target: PI3K-δ (PI3K(p1108/p857) (h)) (Homo sapiens, UniProt O00329); test: Evaluation of inhibitory activity against PI3K-δ (HTRF kinase assay); type: biochemical; settings: for inhibition at 0.01 µM: compound concentration 0.01 μM, read-out: EXP_VALUE(% Inhibition) PI3K-δ 0.01 μM; for inhibition at 0.1 µM: read-out: EXP_VALUE(% Inhibition) PI3K-δ 0.1 μM
Summary of the method: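 HTRF read-out (665/620 nm ratio ×10000) used Eu-labelled anti-GST, GST-tagged GRP1 PH domain and streptavidin-allophycocyanin after EDTA/PIP3 stop.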

DNA-PK(h) = DNA-PK(h) (Homo sapiens, UniProt P78527); test: Evaluation of inhibitory activity against DNA-PK (HTRF kinase assay, GST-cMyc-p53 substrate); type: biochemical; settings: for inhibition at 0.01 µM: compound concentration 0.01 μM, read-out: EXP_VALUE(% Inhibition) DNA-PK(h) 0.01 μM; for inhibition at 0.1 µM: read-out: EXP_VALUE(% Inhibition) DNA-PK(h) 0.1 μM
Summary of the method: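 p53 Ser15 phosphorylation by human DNA-PK was measured by time-resolved FRET ratio (665/620 nm ×10000) using Eu-labelled anti-phospho-Ser15 and d2 anti-GST antibodies. Substrate GST-cMyc-p53 at 50 μM; Mg/ATP-initiated, 30 min at room temperature, EDTA stop.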

PI3K-δ (PI3K(p1108/p857) (h)), sequence (O00329 whole entry, the tested form may be a part): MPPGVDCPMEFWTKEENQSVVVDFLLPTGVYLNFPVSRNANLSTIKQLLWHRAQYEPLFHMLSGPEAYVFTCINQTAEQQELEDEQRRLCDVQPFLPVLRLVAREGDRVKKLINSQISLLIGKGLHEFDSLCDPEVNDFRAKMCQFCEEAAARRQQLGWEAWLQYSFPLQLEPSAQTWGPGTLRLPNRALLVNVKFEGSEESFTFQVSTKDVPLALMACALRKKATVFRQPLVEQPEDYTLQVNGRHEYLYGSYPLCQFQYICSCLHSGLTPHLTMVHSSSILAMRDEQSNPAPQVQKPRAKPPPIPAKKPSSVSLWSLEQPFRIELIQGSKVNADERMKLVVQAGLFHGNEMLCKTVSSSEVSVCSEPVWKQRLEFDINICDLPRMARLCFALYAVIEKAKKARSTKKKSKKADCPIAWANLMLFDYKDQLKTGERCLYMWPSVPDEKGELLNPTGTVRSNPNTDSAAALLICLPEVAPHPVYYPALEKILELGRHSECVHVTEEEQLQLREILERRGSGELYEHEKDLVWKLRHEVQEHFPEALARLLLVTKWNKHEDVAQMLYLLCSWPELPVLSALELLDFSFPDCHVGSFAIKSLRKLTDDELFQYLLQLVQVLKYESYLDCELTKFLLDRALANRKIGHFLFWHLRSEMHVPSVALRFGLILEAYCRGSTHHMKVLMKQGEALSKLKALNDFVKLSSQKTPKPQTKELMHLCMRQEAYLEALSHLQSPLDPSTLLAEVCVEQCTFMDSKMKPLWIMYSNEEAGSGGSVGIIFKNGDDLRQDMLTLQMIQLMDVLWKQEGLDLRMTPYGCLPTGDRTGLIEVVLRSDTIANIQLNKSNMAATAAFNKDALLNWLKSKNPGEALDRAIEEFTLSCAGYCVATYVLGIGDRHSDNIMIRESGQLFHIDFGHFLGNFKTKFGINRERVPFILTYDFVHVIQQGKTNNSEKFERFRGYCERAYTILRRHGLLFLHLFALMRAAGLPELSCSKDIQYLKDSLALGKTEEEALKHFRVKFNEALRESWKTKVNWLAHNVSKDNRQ
PI3K-δ (PI3K(p1108/p857) (h)), sequence (P27986 whole entry partner, the tested form may be a part): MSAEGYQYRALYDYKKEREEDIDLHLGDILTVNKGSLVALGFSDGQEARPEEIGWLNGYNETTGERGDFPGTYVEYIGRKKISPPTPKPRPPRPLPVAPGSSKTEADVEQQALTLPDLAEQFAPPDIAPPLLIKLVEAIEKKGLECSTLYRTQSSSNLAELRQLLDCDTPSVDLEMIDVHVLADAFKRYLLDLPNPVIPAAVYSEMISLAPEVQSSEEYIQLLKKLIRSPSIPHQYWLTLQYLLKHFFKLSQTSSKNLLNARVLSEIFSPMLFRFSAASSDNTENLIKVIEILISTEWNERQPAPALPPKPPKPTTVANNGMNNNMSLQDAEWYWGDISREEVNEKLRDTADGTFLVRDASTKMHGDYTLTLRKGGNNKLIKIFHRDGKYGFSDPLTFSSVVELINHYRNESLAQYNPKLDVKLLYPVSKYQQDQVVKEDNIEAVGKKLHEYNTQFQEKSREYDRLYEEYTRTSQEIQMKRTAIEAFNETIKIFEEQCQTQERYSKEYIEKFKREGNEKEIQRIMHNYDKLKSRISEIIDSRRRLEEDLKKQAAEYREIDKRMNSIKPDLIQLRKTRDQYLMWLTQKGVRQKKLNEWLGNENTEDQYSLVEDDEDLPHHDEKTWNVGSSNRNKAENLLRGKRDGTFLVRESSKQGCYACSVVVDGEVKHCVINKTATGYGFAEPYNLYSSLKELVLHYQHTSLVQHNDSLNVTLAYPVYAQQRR

| inhibition at 0.01 µM [1] | inhibition at 0.1 µM ([1]; compound concentration 0.1 μM) | inhibition at 0.01 µM (DNA-PK(h)) | inhibition at 0.1 µM (DNA-PK(h); compound concentration 0.1 μM) | inhibition at 0.1 µM ([1]; compound at 0.1 μM) | inhibition at 0.1 µM (DNA-PK(h); compound at 0.1 μM) | Compound |
| --- | --- | --- | --- | --- | --- | --- |
| 21% | 61% | 18% | 53% |  |  | C[C@H](Nc1ncnc2[nH]ccc(=O)c12)c1c(Cl)c2cccc(N3CCN(C4CCN(C)CC4)CC3)c2c(=O)n1-c1ccccc1 [Example 11, (S)-4-((1-(4-chloro-8-(4-(1-methylpiperidin-4-yl)piperazin-1-yl)-1-oxo-2-phenyl-1,2-dihydroisoquinolin-3-yl)ethyl)amino)pyrido[2,3-d]pyrimidin-5(8H)-one] |
| 96% |  | 75% |  |  |  | C[C@H](Nc1ncnc2[nH]ccc(=O)c12)c1c(Cl)c2cccc(-c3cnc(N4CCN(C)CC4)nc3)c2c(=O)n1-c1ccccc1 [Example 216, (S)-4-((1-(4-chloro-8-(2-(4-methylpiperazin-1-yl)pyrimidin-5-yl)-1-oxo-2-phenyl-1,2-dihydroisoquinolin-3-yl)ethyl)amino)pyrido[2,3-d]pyrimidin-5(8H)-one] |
|  |  |  |  | 70% | 78% | CCOC(C)(C)c1ncc(-c2cccc3c(Cl)c([C@H](C)Nc4ncnc5[nH]ccc(=O)c45)n(-c4ccccc4)c(=O)c23)cn1 [Example 404, (S)-4-((1-(4-chloro-8-(2-(2-ethoxypropan-2-yl)pyrimidin-5-yl)-1-oxo-2-phenyl-1,2-dihydroisoquinolin-3-yl)ethyl)amino)pyrido[2,3-d]pyrimidin-5(8H)-one] |
| 73% |  | 56% |  |  |  | C[C@H](Nc1ncnc2[nH]ccc(=O)c12)c1c(Cl)c2cccc(-c3cncc(N4CCOCC4)n3)c2c(=O)n1-c1ccccc1 [Example 210, (S)-4-((1-(4-chloro-8-(6-morpholinopyrazin-2-yl)-1-oxo-2-phenyl-1,2-dihydroisoquinolin-3-yl)ethyl)amino)pyrido[2,3-d]pyrimidin-5(8H)-one] |
|  |  |  |  | 20% | 22% | C[C@H](Nc1ncnc2[nH]ccc(=O)c12)c1c(Cl)c2cccc(Sc3ncccn3)c2c(=O)n1-c1ccccc1 [Example 423, (S)-4-((1-(4-chloro-1-oxo-2-phenyl-8-(pyrimidin-2-ylthio)-1,2-dihydroisoquinolin-3-yl)ethyl)amino)pyrido[2,3-d]pyrimidin-5(8H)-one] |
| 83% |  | 56% |  |  |  | C[C@H](Nc1ncnc2[nH]ccc(=O)c12)c1c(Cl)c2cccc(-c3cc[nH]n3)c2c(=O)n1-c1ccccc1 [Example 226, (S)-4-((1-(4-chloro-1-oxo-2-phenyl-8-(1H-pyrazol-3-yl)-1,2-dihydroisoquinolin-3-yl)ethyl)amino)pyrido[2,3-d]pyrimidin-5(8H)-one] |
| 9% |  | 45% |  |  |  | CCCCC(=O)Nc1cccc2c(Cl)c([C@H](C)Nc3ncnc4[nH]ccc(=O)c34)n(-c3ccccc3)c(=O)c12 [Example 297, (S)—N-(4-chloro-1-oxo-3-(1-((5-oxo-5,8-dihydropyrido[2,3-d]pyrimidin-4-yl)amino)ethyl)-2-phenyl-1,2-dihydroisoquinolin-8-yl)pentanamide] |
| 80% |  | 73% |  |  |  | C[C@H](Nc1ncnc2[nH]ccc(=O)c12)c1c(Cl)c2cccc(-c3ccc(C(N)=O)nc3)c2c(=O)n1-c1ccccc1 [Example 201, (S)-5-(4-chloro-1-oxo-3-(1-((5-oxo-5,8-dihydropyrido[2,3-d]pyrimidin-4-yl)amino)ethyl)-2-phenyl-1,2-dihydroisoquinolin-8-yl) picolinamide] |
| 38% |  | 10% |  |  |  | C[C@H](Nc1ncnc2[nH]ccc(=O)c12)c1c(Cl)c2cccc(-c3cccc4cn[nH]c34)c2c(=O)n1-c1ccccc1 [Example 239, (S)-4-((1-(4-chloro-8-(1H-indazol-7-yl)-1-oxo-2-phenyl-1,2-dihydroisoquinolin-3-yl)ethyl)amino)pyrido[2,3-d]pyrimidin-5(8H)-one] |
| 97% | 105% | 22% | 76% |  |  | C[C@H](Nc1ncnc2[nH]ccc(=O)c12)c1cc2cccc(-c3ccc(C(N)=O)cc3)c2c(=O)n1-c1ccccc1 [Example 81, (S)-4-(1-oxo-3-(1-((5-oxo-5,8-dihydropyrido[2,3-d]pyrimidin-4-yl)amino)ethyl)-2-phenyl-1,2-dihydroisoquinolin-8-yl)benzamide] |
| 28.4% | 60.3% | 21.5% | 70.3% |  |  | C[C@H](Nc1ncnc2[nH]ccc(=O)c12)c1c(Cl)c2cccc(C#Cc3ccccn3)c2c(=O)n1-c1ccccc1 [Example 308, (S)-4-((1-(4-chloro-1-oxo-2-phenyl-8-(pyridin-2-ylethynyl)-1,2-dihydroisoquinolin-3-yl)ethyl)amino)pyrido[2,3-d]pyrimidin-5(8H)-one] |
| 89% |  | 79% |  |  |  | COc1ccc(-c2cccc3c(Cl)c([C@H](C)Nc4ncnc5[nH]ccc(=O)c45)n(-c4ccccc4)c(=O)c23)nc1 [Example 41, (S)-4-((1-(4-chloro-8-(5-methoxypyridin-2-yl)-1-oxo-2-phenyl-1,2-dihydroisoquinolin-3-yl)ethyl)amino)pyrido[2,3-d]pyrimidin-5(8H)-one] |
| 10% |  | 2% |  |  |  | COc1cc(-c2cccc3c(Cl)c([C@H](C)Nc4ncnc5[nH]ccc(=O)c45)n(-c4ccccc4)c(=O)c23)ncn1 [Example 45, (S)-4-((1-(4-chloro-8-(6-methoxypyrimidin-4-yl)-1-oxo-2-phenyl-1,2-dihydroisoquinolin-3-yl)ethyl)amino)pyrido[2,3-d]pyrimidin-5(8H)-one] |
| 53% |  | 82% |  |  |  | C[C@H](Nc1ncnc2[nH]ccc(=O)c12)c1c(Cl)c2cccc(-c3ccc(N)nc3)c2c(=O)n1-c1ccccc1 [Example 172, (S)-4-((1-(8-(6-aminopyridin-3-yl)-4-chloro-1-oxo-2-phenyl-1,2-dihydroisoquinolin-3-yl)ethyl)amino)pyrido[2,3-d]pyrimidin-5(8H)-one] |
| 68% |  | 34% |  |  |  | C[C@H](Nc1ncnc2[nH]ccc(=O)c12)c1c(Cl)c2cccc(-c3ccc(OC(F)(F)F)nc3)c2c(=O)n1-c1ccccc1 [Example 223, (S)-4-((1-(4-chloro-1-oxo-2-phenyl-8-(6-(trifluoromethoxy)pyridin-3-yl)-1,2-dihydroisoquinolin-3-yl)ethyl)amino)pyrido[2,3-d]pyrimidin-5(8H)-one] |
| 99% | 97% | 70% | 94% |  |  | Cc1ccc(-c2cccc3c(Br)c([C@H](C)Nc4ncnc5[nH]ccc(=O)c45)n(-c4ccccc4)c(=O)c23)cn1 [Example 17, (S)-4-((1-(4-bromo-8-(6-methylpyridin-3-yl)-1-oxo-2-phenyl-1,2-dihydroisoquinolin-3-yl)ethyl)amino)pyrido[2,3-d]pyrimidin-5(8H)-one] |
| 73% |  | 44% |  |  |  | CC(C)c1ncncc1-c1cccc2c(Cl)c([C@H](C)Nc3ncnc4[nH]ccc(=O)c34)n(-c3ccccc3)c(=O)c12 [Example 215, (S)-4-((1-(4-chloro-8-(4-isopropylpyrimidin-5-yl)-1-oxo-2-phenyl-1,2-dihydroisoquinolin-3-yl)ethyl)amino)pyrido[2,3-d]pyrimidin-5(8H)-one] |
| 81% | 91% | 54% | 92% |  |  | Cc1cc(F)ccc1-c1cccc2c(Cl)c([C@H](C)Nc3ncnc4[nH]ccc(=O)c34)n(-c3ccccc3)c(=O)c12 [Example 131, (S)-4-((1-(4-chloro-8-(4-fluoro-2-methylphenyl)-1-oxo-2-phenyl-1,2-dihydroisoquinolin-3-yl)ethyl)amino)pyrido[2,3-d]pyrimidin-5(8H)-one] |
| 39% | 79% | 31% | 74% |  |  | C[C@H](Nc1ncnc2[nH]ccc(=O)c12)c1c(Cl)c2cccc(-c3ccc(C4CC4)cc3)c2c(=O)n1-c1ccccc1 [Example 141, (S)-4-((1-(4-chloro-8-(4-cyclopropylphenyl)-1-oxo-2-phenyl-1,2-dihydroisoquinolin-3-yl)ethyl)amino)pyrido[2,3-d]pyrimidin-5(8H)-one] |
| 46% |  | 20% |  |  |  | C[C@H](Nc1ncnc2[nH]ccc(=O)c12)c1c(Cl)c2cccc(-c3ccc(OCc4ccccc4)nc3)c2c(=O)n1-c1ccccc1 [Example 164, (S)-4-((1-(8-(6-(benzyloxy)pyridin-3-yl)-4-chloro-1-oxo-2-phenyl-1,2-dihydroisoquinolin-3-yl)ethyl)amino)pyrido[2,3-d]pyrimidin-5(8H)-one] |
| 32% |  | 18% |  |  |  | COc1cc(OC(F)(F)F)cc(-c2cccc3c(Cl)c([C@H](C)Nc4ncnc5[nH]ccc(=O)c45)n(-c4ccccc4)c(=O)c23)c1 [Example 158, (S)-4-((1-(4-chloro-8-(3-methoxy-5-(trifluoromethoxy)phenyl)-1-oxo-2-phenyl-1,2-dihydroisoquinolin-3-yl)ethyl)amino)pyrido[2,3-d]pyrimidin-5(8H)-one] |

— patent US20230072683A1, “PYRIDO-PYRIMIDIN DERIVATIVES AND PHARMACEUTICAL COMPOSITION, FOR USE IN PREVENTING OR TREATING PI3 KINASE RELATED DISEASES, COMPRISING SAME AS ACTIVE INGREDIENT” (BORYUNG PHARMACEUTICAL CO., LTD, priority 2019, published 2023)
